Test results: patent US7786175B2, “Anti-atherosclerosis composition containing carotenoids and method for inhibiting LDL oxidation” (Lycored Natural Products, priority 2001, dated 2010)

Key:
LDL [1] = experiment: Copper ion-induced LDL oxidation, lipid peroxides assay; assay type: biochemical; settings: for effect on LDL oxidation (lipid peroxides), in words: single compounds at low concentration mimicking Lyc-O-Mato: lycopene 10 μg/ml, vitamin E 2.5 μg/ml, β-carotene 0.4 μg/ml
Experimental: (§1) All studied compounds were dissolved in THF to a stock solution of 1 mg/ml. LDL was dialyzed for 24 hours against phosphate buffered-saline (PBS) prior to its oxidation to remove any EDTA that can interfere with the oxidation. LDL (100 μg protein/ml), was incubated in the absence (Control) or presence of increasing concentrations of each one of the studied compounds, as well as, in various combinations including 2, 3 or the 4 constituents at the desired natural distribution. LDL oxidation was induced by the addition of 5 μM of CuSO4, for 2 hours at 37° C. LDL oxidation was terminated by adding 1 mM Na2 EDTA and immediate refrigeration at 4° C. The extent of LDL oxidation was then determined by measuring the amount of thiobarbituric acid reactive substances (TBARS) and of lipid peroxides (PD) formed. Control LDL was supplemented with only THF.
(§2) LDL (100 μg of protein/mL) was pre-incubated for 30 minutes at 37° C. with increasing concentrations of crystalline pure lycopene, or with tomato oleoresin (at equivalent lycopene concentrations), followed by a further incubation for 2 hours at 37° C. in the presence of 5 μmol/L of CuSO4. LDL oxidation was measured by the TBARS (A) or by the lipid peroxides (B) assays respectively. Results are given as mean±SD (n=3). Addition of increasing concentrations of lycopene inhibited copper ion-induced LDL oxidation moderately, in a dose-dependent manner.

LDL [2] = experiment: Copper ion-induced LDL oxidation, TBARS assay; assay type: biochemical; settings: for effect on LDL oxidation (TBARS), in words: single compounds at low concentration mimicking Lyc-O-Mato: lycopene 10 μg/ml, vitamin E 2.5 μg/ml, β-carotene 0.4 μg/ml
Experimental: as §1, §2

[3] = 50 μmol/L of lycopene, LDL 100 μg of protein/mL, 5 μmol/L CuSO4, 2 hours at 37° C.

Compound | maximal inhibition in lipid peroxides formation (LDL [1]; [3]) | effect on LDL oxidation (lipid peroxides), in words (LDL [1]) | maximal inhibition in TBARS formation (LDL [2]; [3]) | effect on LDL oxidation (TBARS), in words (LDL [2]) | effect on LDL oxidation, in words (LDL [2]; Example 5: β-carotene alone or in combination with vitamin E)
CC(C)=CCC/C(C)=C/C=C/C(C)=C/C=C/C(C)=C/C=C/C=C(C)/C=C/C=C(C)/C=C/C=C(\C)CCC=C(C)C [lycopene] | 27% | did not significantly affect LDL oxidation | 22% | did not significantly affect LDL oxidation | –
CC1=C(/C=C/C(C)=C/C=C/C(C)=C/C=C/C=C(C)/C=C/C=C(C)/C=C/C2=C(C)CCCC2(C)C)C(C)(C)CCC1 [β-carotene] | – | did not significantly affect LDL oxidation | – | did not significantly affect LDL oxidation | did not affect at all LDL oxidation
vitamin E | – | did not significantly affect LDL oxidation | – | did not significantly affect LDL oxidation | –
